{"source": "patent US9333257B2", "about": "“FGFR1 antibodies and treatment of cancer” (Agency for Science, Technology and Research, priority 2011, dated 2016)", "format_in_all_cases": "cell-based, human", "key": {"hOS": {"test_system": "hOS", "assay": "Cell viability via GUAVA, fold change vs cells plated", "conditions": "two day treatment", "protocol": "(§1) Old media was first removed and 3 ml of fresh media added. IMBR1 and rabbit IgG were added to achieve desired dosage. PD166866 (Sigma-Aldrich, USA) and SU5402 (Merck, Germany) were dissolved in dimethyl sulfoxide (DMSO; Sigma-Aldrich, USA) and added to master mix of media to achieve desired concentration. Additional DMSO was added such that total volume of chemicals added was constant.\n(§2) Cells were grown in 24-well plate with 500 μl of media at a seeding density of 20,000 cells/cm^2, except for MDA-MB-468 which were seeded at a density of 100,000 cells/cm^2. Each well of cells were then collected via trypsinization with 200 μl of trypsin-EDTA (Invitrogen, USA) and neutralized with 200 μl of media. 1 μl of GUAVA Viacount Flex dye (Guava Technologies, USA) was added to each well. Quantification of viable cells were performed as per manufacturer's instructions.\n(§3) To determine the effect of inhibiting FGFR1 signaling on cell viability in osteosarcoma cells, Saos-2 and hOS were treated with varying concentrations of FGFR tyrosine kinase inhibitors PD166866 (Panek et al., 1998) and SU5402 (Mohammadi et al, 1997). The control groups of respective cell lines were treated with equivalent volume of DMSO, as DMSO is the vehicle for both chemical inhibitors. Cell viability was measured via GUAVA and fold change calculated to compare changes in number of cells after two day treatment and number of cells plated. A fold change greater than one indicated an increase in number of cells while a fold change less than one indicated a decrease in number of cells compared to number of cells plated."}, "MG63 cells [1]": {"test_system": "MG63 cells", "assay": "Cell growth, viable cell count by GUAVA Viacount", "conditions": "48 hours; for repression of cell growth: 50 μM", "procedure": "The cells were seeded in triplicates at 20,000 cells/cm^2 in 24-well plates, except MDA-MB468 which was plated at 100,000 cells/cm^2. […] 48 hours after treatment, the viable cell numbers were counted using the GUAVA Viacount Program and used to plot the graph (FIG. 6). The ‘starting’ cell numbers which were seeded for the assay were also included. hFOB is the normal cell control for osteosarcoma cells, while MCF10A is the normal cell control for breast cancer cells.\nWe tested the effectiveness of these reagents to block the growth of MG63 using GUAVA Viacount system.\nThe effect of these antibodies on the growth of MG63 cells were examined by GUAVA EasyCyte flow cytometry system.\nRabbit IgG and mouse IgG were the vehicle control for IMB-R1 and IMB-R1 mAbs, respectively. The viable cells were counted by GUAVA Viacount system. The statistics was done by Student's t test."}, "Saos-2": {"test_system": "Saos-2", "assay": "Cell viability via GUAVA, fold change vs cells plated", "conditions": "two day treatment", "protocol": "as §1, §2, §3\nTo determine the effect of IMBR1 on cell viability, GUAVA was performed after two day treatment with varying amount of IMBR1 or rabbit IgG as control. Rabbit IgG was used as control as IMBR1 is raised in rabbit. Half maximal inhibitory constant (IC50) was then determined."}, "MG63 cells [2]": {"test_system": "MG63 cells", "assay": "FGF2 stimulated MG63 cell growth (GUAVA)", "protocol": "MG63 cells were treated with 20 ng/ml FGF2, IMB-R1 (1:250 dilution), or pretreated with IMB-R11 hour before addition of FGF2. Cells without the above treatments were the control. After 2 days, the viable cell numbers were counted using GUAVA system as mentioned before.\nCells were first treated with increasing doses of U0126 for 48 hours. The viable cell numbers were then analysed by GUAVA system. Next, cells were treated with 20 ng/ml FGF2 in the presence or absence of the optimal dose of U0126 determined from the first assay, before the cell counting was performed."}, "MG63 cells [3]": {"test_system": "MG63 cells", "assay": "Annexin V-FITC / PI staining apoptosis assay", "protocol": "Thus we treated MG63 with 1:250 dilution of IMB-R1 or equal volume of rabbit IgG for 24 hours and then stained the cells with Annexin V-FITC and Propidium Iodide (PI) (BD Biosciences). Annexin V binds to phosphatidylserine which is only present on the outer layer of cell membrane at the early stage of apoptosis. Therefore positive staining of Annexin V indicates early apoptosis. PI is unable to penetrate the intact cell membrane. Only when the membrane breaks down at the late stage of apoptosis, PI can enter and stain the cell. After staining, the cell population was analyzed by BD FACS Array system. The viable cells were negative of either Annexin V-FITC or PI staining, which was shown in Q3; the early apoptotic cells were positive of Annexin V-FITC but negative of PI staining, which was shown in Q4; the late apoptotic or dead cells were positive of both staining, which was shown in Q2. The percentage of positive cells in each population was plotted in the graphs.\nWe next examined whether FGF2 regulated cell apoptosis and IMB-R1 blocked its effect. MG63 cells were treated with IMB-R1 (1:250) 1 hour before FGF2 (20 ng/ml). 24 hours later, cells were harvested and stained with Annexin-PI. Thereafter, cells were analysed by flow cytometry (FIG. 11B). […]\nCells were treated with 25 μM U0126 for 24 hours before the apoptosis of the cells was analysed by Annexin-PI staining."}, "Caspase 3": {"test_system": "Caspase 3", "assay": "Caspase 3 activity assay (Biovision kit) in MG63", "conditions": "24 hours", "protocol": "We further examined the effect of IMB-R1 on Caspase 3 activity using an assay kit from Biovision. Caspase 3 is activated at the early stage of apoptosis, so it is used as a common marker of apoptosis. Staurosporine, known as the inducer of caspase 3 activity, was used in this assay as the positive control. We first treated MG63 cells with increasing dose of staurosporine for 24 hours to determine the working dose.\nWe next examined whether FGF2 regulated cell apoptosis and IMB-R1 blocked its effect. MG63 cells were treated with IMB-R1 (1:250) 1 hour before FGF2 (20 ng/ml). 24 hours later, cells were harvested and stained with Annexin-PI. Thereafter, cells were analysed by flow cytometry (FIG. 11B). The percentage of positive cells in each population was plotted in the graphs (FIG. 11C). We further examined the effect of IMB-R1 and FGF2 on Caspase 3 activity using the assay kit from Biovision. Caspase 3 is activated at the early stage of apoptosis, so it is used as a common marker of apoptosis. The dose of reagents and the time point chosen were same to those in Annexin-PI staining assay."}}, "data": [{"molecule": "COc1cc(OC)cc(-c2cc3cnc(N)nc3nc2NC(=O)NC(C)(C)C)c1", "note": "[PD166866]", "values": [{"measurement": "fold change of cell number vs cells plated", "setting": "hOS; 10 μM", "result": 4.2}, {"measurement": "fold change of cell number vs cells plated", "setting": "hOS; 100 μM", "result": 0.7}, {"measurement": "repression of cell growth", "setting": "MG63 cells [1]", "result": "~50", "unit": "%"}, {"measurement": "fold change of cell number vs cells plated", "setting": "Saos-2; 10 μM", "result": 1.7}, {"measurement": "fold change of cell number vs cells plated", "setting": "Saos-2; 100 μM", "result": 0.4}]}, {"molecule": "CCN(CC)CCCCNc1ncc2cc(-c3cc(OC)cc(OC)c3)c(NC(=O)NC(C)(C)C)nc2n1", "note": "[PD173074]", "values": [{"measurement": "IC50", "setting": "MG63 cells [1]; Homo sapiens, MG-63, read-out: concentration able to induce 50% cell growth inhibition", "result": "10 to 25", "unit": "µM"}]}, {"molecule": "Cc1c[nH]c(/C=C2\\C(=O)Nc3ccccc32)c1CCC(=O)O", "note": "[SU5402]", "values": [{"measurement": "fold change of cell number vs cells plated", "setting": "hOS; 10 μM", "result": 5.2}, {"measurement": "fold change of cell number vs cells plated", "setting": "hOS; 100 μM", "result": 0.6}, {"measurement": "repression of cell growth", "setting": "MG63 cells [1]", "result": "~50", "unit": "%"}, {"measurement": "fold change of cell number vs cells plated", "setting": "Saos-2; 10 μM", "result": 2.14}, {"measurement": "fold change of cell number vs cells plated", "setting": "Saos-2; 100 μM", "result": 0.9}]}, {"molecule": "N#CC(=C(/N)Sc1ccccc1N)/C(C#N)=C(\\N)Sc1ccccc1N", "note": "[U0126]", "values": [{"measurement": "FGF2 stimulated cell growth", "setting": "MG63 cells [2]; 25 μM U0126, 20 ng/ml FGF2", "result": "completely suppressed"}, {"measurement": "cell number relative to cells without treatment", "setting": "MG63 cells [1]; 25 μM", "result": "~50", "unit": "%"}, {"measurement": "cell apoptosis", "setting": "MG63 cells [3]; 25 μM, 24 hours (control 7.49%)", "result": "~100", "unit": "%"}, {"measurement": "viability at 25 µM", "setting": "MG63 cells [3]; Homo sapiens, MG-63, 24 h, read-out: viable cells", "result": "< 1", "unit": "%"}]}, {"molecule": "CN[C@@H]1C[C@H]2O[C@@](C)([C@@H]1OC)n1c3ccccc3c3c4c(c5c6ccccc6n2c5c31)C(=O)NC4", "note": "[staurosporine]", "values": [{"measurement": "Caspase 3 activation", "setting": "Caspase 3; 15 nM", "result": "sufficient to activate Caspase 3"}]}, {"molecule": "FGF2: recombinant human FGF2 (R&D Systems), FGF ligand that activates FGFR1 signalling", "values": [{"measurement": "increase of cell proliferation", "setting": "MG63 cells [2]; 20 ng/ml FGF2, 2 days", "result": 1.9, "unit": "folds"}, {"measurement": "caspase 3 activity", "setting": "Caspase 3; FGF2 20 ng/ml alone", "result": "slightly decreased"}]}]}
